Data taken from PMC6100512, “In-Vitro Activity of Silybin and Related Flavonolignans against Leishmania infantum and L. donovani” (Molecules : A Journal of Synthetic Chemistry and Natural …, 2018).

Columns and labels:
Ld promastigotes = experiment: Multiplication of Ld promastigotes in vitro (CellTiter-Glo, 24 h); type: cell-based, L. donovani; conditions: Leishmania donovani, 120 µM, compared to untreated cultures, mean ± SD, read-out: Reduction (%) of multiplication, L. donovani promastigotes
Method: (§1) Growth was estimated by the addition of CellTiter-Glo® (Promega, Madison, WI, USA) (1:1) in 96-well microtiter white plates (Costar, Corning). After 10 min incubation (light protected, room temperature), luminescence was determined with FLUOstar Omega (BMG Labtech) reader. Sensitivity of Ld was similarly performed with promastigotes exposed to 120 μM. Control cultures (medium, untreated promastigotes, promastigotes treated with 0.2 μM AmB) were included. Experiment was carried out in triplicate and results expressed as % of inhibition of untreated control. Approximate IC50 values of the flavonolignans showing the highest inhibitory activity against Li mid-log-phase promastigotes were determined using dose-response curves. […] The compound with the highest activity, DhiS-A, was assayed against Ld promastigotes using the latter dilution series and the same culture conditions as above. For comparative purposes, mid-log promastigotes of Li and Ld were exposed to established anti-Leishmania agents: AmB (0.0078 μ[…] and 1.0 μM); […]

Li UCM9 promastigotes = experiment: Multiplication of Li promastigotes in vitro (CellTiter-Glo, 24 h); type: cell-based, Leishmania infantum; conditions: for inhibition of growth at 120 µM / Emax: Leishmania infantum; for inhibition of growth at 120 µM: compared to untreated cultures, mean ± SD, read-out: Reduction (%) of multiplication, L infantum promastigotes; for Emax: exploratory screening, 0.94 µM up to 120 µM, read-out: Maximal effect (inhibition of growth of control cultures) on Li promastigotes
Method: as §1

Li promastigotes = experiment: Drug combination with DhiS-A, Chou-Talalay method (CalcuSyn); type: cell-based, Leishmania infantum; conditions: for CI value of combination Dn + DhiS-A: constant ratio Dn:DhiS-A (AmB 0.01:15; Sb^III 1:1; PMM 5:1); for Dose Required of Dn in combination with DhiS-A: computer-simulated; for DRI of Dn in combination with DhiS-A: fold dose reduction vs single agent
Method: Fixed-combination ratios of drugs were based on the IC50 values determined for the individual molecules. Mid-log-phase promastigotes of Li were exposed for 24 h at constant ratios of 0.01:15 (AmB:DhiS-A), 1:1 (Sb^III:DhiS-A) and 5:1 (PMM:DhiS-A). Dose–response curves of the combinations were analyzed with the Chou–Talalay method, based on the theorem of combination index (CI)-isobologram and CalcuSyn software. This method allows the evaluation of the type of interaction between two molecules according to mass action law. Results can be used to determine quantitatively the synergy (CI < 1), additive effect (CI = 1) or antagonism (CI > 1) of combinations. Moreover, the program allows the calculation of the drug reduction index (DRI): dose reduction in drug combinations to reach a given inhibition compared to the activity of the individual drugs.

[1] = tested on: BALB/c mouse peritoneal macrophages, Mφ; experiment: Toxicity of flavonolignans for macrophages (CellTiter-Glo); type: cell-based; conditions: Peritoneal macrophage, 24 h, 28.125 to 900 µM, approximate
Method: Toxicity of flavonolignans for mammalian cells was determined using mouse peritoneal Mφ. Cells obtained were counted and seeded onto 96-well cultures plates (Costar, Corning) at a final concentration of 5 × 10^4 Mφ/well (100 µL/well). Plates were incubated overnight at 37 °C and humidified 5% CO2/95% air to facilitate adherence. Cells were cultured as above for 24 h with different concentrations of the flavonolignans (28.125 µM, 56.25 µM, 112.5 µM, 225 µM, 450 µM and 900 µM). After incubation, cell viability was determined with CellTiter-Glo® as previously described. Untreated and 300 µM AmB-treated control wells were included. Experiments were done in triplicate and approximate IC50 determined.

COc1cc([C@@H]2[C@H]3CO[C@@]4(O)C(=O)[C@@H]2C=C([C@H]2Oc5cc(O)cc(O)c5C(=O)[C@@H]2O)[C@@H]34)ccc1O [Silydianin, silydianin]
inhibition of growth at 120 µM (Ld promastigotes): 20.5 ± 3.08% | inhibition of growth at 120 µM (Li UCM9 promastigotes; 24 h): 16.4 ± 8.63%

potassium tartrate of antimonium III [Sb^III]
CI value of combination Dn + DhiS-A (Li promastigotes; ED50 (50% growth inhibition)): 1.89 (antagonism) | Dose Required of Dn in combination with DhiS-A (Li promastigotes; ED50): 56 µM | DRI of Dn in combination with DhiS-A (Li promastigotes; ED50): 0.82 | CI value of combination Dn + DhiS-A (Li promastigotes; ED75 (75% growth inhibition)): 2.09 (antagonism) | Dose Required of Dn in combination with DhiS-A (Li promastigotes; ED75): 141.12 µM | DRI of Dn in combination with DhiS-A (Li promastigotes; ED75): 0.92 | CI value of combination Dn + DhiS-A (Li promastigotes; ED90 (90% growth inhibition)): 2.50 (antagonism) | Dose Required of Dn in combination with DhiS-A (Li promastigotes; ED90): 355.63 µM | DRI of Dn in combination with DhiS-A (Li promastigotes; ED90): 1.04 | CI value of combination Dn + DhiS-A (Li promastigotes; ED95 (95% growth inhibition)): 2.93 (antagonism) | Dose Required of Dn in combination with DhiS-A (Li promastigotes; ED95): 666.84 µM | DRI of Dn in combination with DhiS-A (Li promastigotes; ED95): 1.13 | Type of interaction with DhiS-A (Li promastigotes; Li promastigotes, fixed ratios AmB 0.01:15, Sb^III 1:1, PMM 5:1 (Dn:DhiS-A)): antagonists | IC50 (Li UCM9 promastigotes; approximate, dose-response curve, 24 h): ~80.6 µM

COc1cc(C2Oc3cc(-c4oc5cc(O)cc(O)c5c(=O)c4O)ccc3OC2CO)ccc1O (centres unmarked) [Dehydrosilybin AB, dehydrosilybin AB]
inhibition of growth at 120 µM (Ld promastigotes): 9.01 ± 3.59% | inhibition of growth at 120 µM (Li UCM9 promastigotes; 24 h): 17.9 ± 4.33% | Emax (Li UCM9 promastigotes): < 50% | IC50 [1]: ~37 µM

COc1cc([C@@H]2Oc3c(O)cc(-c4oc5cc(O)cc(O)c5c(=O)c4O)cc3[C@H]2CO)ccc1O [Dehydrosilychristin A, dehydrosilychristin A]
inhibition of growth at 120 µM (Ld promastigotes): 46.7 ± 1.24% | inhibition of growth at 120 µM (Li UCM9 promastigotes; 24 h): 30.6 ± 3.33% | Emax (Li UCM9 promastigotes): < 50% | IC50 [1]: ~40 µM

COc1cc([C@@H]2Oc3cc(-c4oc5cc(O)cc(O)c5c(=O)c4O)ccc3O[C@H]2CO)ccc1O [Dehydrosilybin B, dehydrosilybin B]
inhibition of growth at 120 µM (Ld promastigotes): 38.1 ± 2.9% | inhibition of growth at 120 µM (Li UCM9 promastigotes; 24 h): 20.9 ± 11.6% | IC50 [1]: ~41.2 µM

COc1cc([C@H]2Oc3ccc([C@H]4Oc5cc(O)cc(O)c5C(=O)[C@@H]4O)cc3O[C@@H]2CO)ccc1O [Isosilybin A, isosilybin A]
inhibition of growth at 120 µM (Ld promastigotes): 30.6 ± 5.85% | inhibition of growth at 120 µM (Li UCM9 promastigotes; 24 h): 6.94 ± 6.43%

COc1cc([C@@H]2Oc3c(O)cc([C@H]4Oc5cc(O)cc(O)c5C(=O)[C@@H]4O)cc3[C@H]2CO)ccc1O [Silychristin A, silychristin A]
inhibition of growth at 120 µM (Ld promastigotes): 19.2 ± 5.75% | inhibition of growth at 120 µM (Li UCM9 promastigotes; 24 h): 27.1 ± 8.64% | Emax (Li UCM9 promastigotes): < 50%
